Several values for one entry are separate records, joined by “and”; a condition that tells them apart may be missing. Equal entries are not always repeated. Where two headings read alike, the source gives them in different places. Where a SMILES comes first, the peptide text is derived from it. [ ]: non-standard residue; d: D form. The star is where a group is joined. NHCH2CH2OH = OCCN*; For = O=C*
Columns and labels:
[1] = test system: MSSA1 (methicillin-susceptible Staphylococcus aureus); format: cell-based
[2] = test system: Streptococcus pneumoniae NBRC 102642; details: for Antibacterial activity MIC: NBRC 102642; for antibacterial activity/MIC: S. pneumoniae
How it was run: (§1)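 Growth inhibition was scored after 18–24 h at 37 °C in cation-adjusted Mueller Hinton broth, with laked horse blood (5%) included for streptococcal strains. Inocula were standardized by OD 625 and diluted to about 5 × 10^4 CFU/well.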

[3] = test system: Enterococcus faecalis JCM5803; details: for antibacterial activity/MIC: E. faecalis; for Antibacterial activity MIC: JCM5803
How it was run: as §1

[4] = test system: Listeria monocytogenes 10403S; details: for Antibacterial activity MIC: 10403S; for antibacterial activity/MIC: L. monocytogenes
How it was run: as §1

[5] = test system: Streptococcus agalactiae JCM5671; details: for Antibacterial activity MIC: JCM5671; for antibacterial activity/MIC: S. agalactiae
How it was run: as §1

[6] = test system: Streptococcus pyogenes SSI-9; details: for antibacterial activity/MIC: S. pyogenes; for Antibacterial activity MIC: SSI-9
How it was run: as §1

[7] = H+/Na+ transport assay of purified peptides; details: for Supplementary Figure 5 dose-response value (H+/Na+ transport): three replicate lines
Protocol: First, we evaluated the ion channel function of 1 using liposomes. To mimic a negatively charged Gram-positive bacterial membrane, the liposomes were prepared as large unilamellar vesicles (LUVs) comprising a 19:1 mixture of egg yolk phosphatidylcholine (EYPC) and egg yolk phosphatidylglycerol (EYPG)[57]. Pyranine, a pH-dependent fluorescent dye[58], was encapsulated in the LUVs and a pH gradient was applied across the membrane. H^+/Na^+ transport induced by a peptide was monitored by changes in the fluorescence intensity of pyranine.

[8] = Membrane disruption assay of purified peptides (carboxyfluorescein leakage); format: biochemical; set-up: key: % lysis; Triton X-100 = 100%, DMSO = 0%; details: three replicate lines
[9] = IC50, mammalian cytotoxicity assay
[10] = read-out: EC50, H+/Na+ transport assay, 1st experiment
[11] = read-out: EC50, H+/Na+ transport assay, 2nd experiment
[12] = read-out: EC50, H+/Na+ transport assay, 3rd experiment
[13] = read-out: H+/Na+ transport activity EC50, EYPC/EYPG (19:1) LUVs
[14] = read-out: H+/Na+ transport activity/EC50, mean ± SD of three independent experiments

Row | Compound | antibacterial activity/MIC [1] | Antibacterial activity MIC [2] | antibacterial activity/MIC [2] | antibacterial activity/MIC [3] | Antibacterial activity MIC [3] | Antibacterial activity MIC [4] | antibacterial activity/MIC [4] | Antibacterial activity MIC [5] | antibacterial activity/MIC [5] | antibacterial activity/MIC [6] | Antibacterial activity MIC [6] | Supplementary Figure 5 dose-response value (H+/Na+ transport) ([7]; concentration 0.000512 nM) | Supplementary Figure 5 dose-response value (H+/Na+ transport) ([7]; concentration 0.00256 nM) | Supplementary Figure 5 dose-response value (H+/Na+ transport) ([7]; concentration 0.0128 nM) | Supplementary Figure 5 dose-response value (H+/Na+ transport) ([7]; concentration 0.064 nM) | Supplementary Figure 5 dose-response value (H+/Na+ transport) ([7]; concentration 0.32 nM) | Supplementary Figure 5 dose-response value (H+/Na+ transport) ([7]; concentration 1.6 nM) | Supplementary Figure 5 dose-response value (H+/Na+ transport) ([7]; concentration 8 nM) | Supplementary Figure 5 dose-response value (H+/Na+ transport) ([7]; concentration 40 nM) | Supplementary Figure 5 dose-response value (H+/Na+ transport) ([7]; concentration 200 nM) | also measured
1 | CC(C)C[C@@H](NC(=O)[C@H](C)NC(=O)[C@H](NC(=O)[C@H](C)NC(=O)CNC(=O)[C@@H](NC=O)C(C)C)[C@H](C)O)C(=O)N[C@H](C(=O)N[C@H](CC(C)C)C(=O)N[C@@H](Cc1c[nH]c2ccccc12)C(=O)N[C@@H](C(=O)N[C@@H](Cc1c[nH]c2ccccc12)C(=O)N[C@H](CC(C)C)C(=O)N[C@@H](Cc1c[nH]c2ccccc12)C(=O)N[C@@H](C(=O)N[C@@H](Cc1c[nH]c2ccccc12)C(=O)NCCO)C(C)C)[C@H](C)O)C(C)C [B21] (For-VGA[dT]A[dL]V[dL]W[dT]W[dL]W[dV]W-NHCH2CH2OH) | 16 µg/mL | 0.53 µM | 1 µg/mL | 8 µg/mL | 4.3 µM | > 34 µM | > 64 µg/mL | 34 µM | 64 µg/mL | 32 µg/mL | 17 µM | 2.384 and 1.443 and 2.029 | 3.95 and 1.0017 and 1.216 | 7.632 and 2.998 and 3.58 | 6.775 and 3.579 and 3.365 | 12.3823 and 9.367 and 13.3536 | 41.7064 and 40.5042 and 40.751 | 73.419 and 69.4178 and 73.375 | 75.8465 and 74.348 and 76.0982 | 78.878 and 79.2127 and 80.049 | Supplementary Figure 5 dose-response value (H+/Na+ transport) ([7]; concentration 1000 nM): 81.8535 and 78.0432 and 78.4426; Supplementary Figure 5 dose-response value (H+/Na+ transport) ([7]; concentration 5000 nM): 82.5653 and 78.9179 and 76.8722; EC50 [7, 10]: 1.57 nM; EC50 [7, 11]: 1.58 nM; EC50 [7, 12]: 1.32 nM; EC50 [7, 13]: 1.5 nM; EC50 [7, 14]: 1.49 ± 0.15 nM; Supplementary Figure 1 dose-response value ([8]; concentration 0.000512 nM): 14.8974 and 5.3396 and 11.8083; Supplementary Figure 1 dose-response value ([8]; concentration 0.00256 nM): 18.072 and -2.382 and 0.726; Supplementary Figure 1 dose-response value ([8]; concentration 0.0128 nM): -1.184 and 8.357 and 7.1241; Supplementary Figure 1 dose-response value ([8]; concentration 0.064 nM): -0.803 and 4.138 and 1.858; Supplementary Figure 1 dose-response value ([8]; concentration 0.32 nM): 1.612 and 3.04 and 7.439; Supplementary Figure 1 dose-response value ([8]; concentration 1.6 nM): 5.221 and -3.492 and 12.0075; Supplementary Figure 1 dose-response value ([8]; concentration 8 nM): 15.0705 and 19.6578 and 20.2333; Supplementary Figure 1 dose-response value ([8]; concentration 40 nM): 21.4059 and 19.6002 and 32.4332; Supplementary Figure 1 dose-response value ([8]; concentration 200 nM): 39.5964 and 37.7798 and 25.5852; Supplementary Figure 1 dose-response value ([8]; concentration 1000 nM): 40.751 and 51.3594 and 47.003; Supplementary Figure 1 dose-response value ([8]; concentration 5000 nM): 73.5609 and 68.2985 and 59.7258; IC50 [9]: > 1000 nM
2 | CNC(=O)C[C@@H](NC(=O)[C@@H](NC(=O)[C@@H](CC(C)C)NC(=O)[C@H](C)NC(=O)[C@@H](CC(C)C)NC(=O)[C@H](C)NC(=O)CNC(=O)[C@@H](NC=O)C(C)C)C(C)C)C(=O)N[C@@H](Cc1c[nH]c2ccccc12)C(=O)N[C@H](CC(C)C)C(=O)N[C@@H](Cc1c[nH]c2ccccc12)C(=O)N[C@H](CC(C)C)C(=O)N[C@@H](Cc1c[nH]c2ccccc12)C(=O)N[C@@H](C(=O)N[C@@H](Cc1c[nH]c2ccccc12)C(=O)NCCO)[C@H](C)O [B22] (For-VGA[dL]A[dL]V[dD](NHMe)W[dL]W[dL]W[dT]W-NHCH2CH2OH) | > 64 µg/mL | 1 µM | 2 µg/mL | 64 µg/mL | 33 µM | > 33 µM | > 64 µg/mL | > 33 µM | > 64 µg/mL | > 64 µg/mL | > 33 µM | 3.488 and 0.6119 and 2.737 | 2.255 and -0.3059 and 2.73 | 4.874 and 2.041 and 3.252 | 5.2777 and 5.073 and 4.243 | 9.536 and 13.0972 and 10.1736 | 28.0205 and 30.7244 and 31.4442 | 63.0425 and 64.573 and 66.6211 | 71.1735 and 74.4694 and 76.8331 | 80.49 and 75.6285 and 73.1074 | Supplementary Figure 5 dose-response value (H+/Na+ transport) ([7]; concentration 1000 nM): 79.8358 and 79.3757 and 78.5441; Supplementary Figure 5 dose-response value (H+/Na+ transport) ([7]; concentration 5000 nM): 88.1657 and 79.255 and 76.0319; EC50 [7, 10]: 2.49 nM; EC50 [7, 11]: 2.93 nM; EC50 [7, 12]: 1.94 nM; EC50 [7, 13]: 2.5 nM; EC50 [7, 14]: 2.45 ± 0.5 nM; Supplementary Figure 1 dose-response value ([8]; concentration 0.000512 nM): 5.233 and 5.708 and 3.745; Supplementary Figure 1 dose-response value ([8]; concentration 0.00256 nM): 6.399 and 0.9122 and 2; Supplementary Figure 1 dose-response value ([8]; concentration 0.0128 nM): 2.405 and 9.3526 and 2.534; Supplementary Figure 1 dose-response value ([8]; concentration 0.064 nM): 4.116 and 2.091 and 9.6371; Supplementary Figure 1 dose-response value ([8]; concentration 0.32 nM): 3.439 and -1.283 and 7.2259; Supplementary Figure 1 dose-response value ([8]; concentration 1.6 nM): 12.4052 and 7.371 and 12.8868; Supplementary Figure 1 dose-response value ([8]; concentration 8 nM): 24.0812 and 19.193 and 19.2236; Supplementary Figure 1 dose-response value ([8]; concentration 40 nM): 21.9455 and 34.569 and 23.6152; Supplementary Figure 1 dose-response value ([8]; concentration 200 nM): 30.6863 and 31.8474 and 39.9799; Supplementary Figure 1 dose-response value ([8]; concentration 1000 nM): 57.1747 and 48.6012 and 49.2408; Supplementary Figure 1 dose-response value ([8]; concentration 5000 nM): 70.9515 and 65.7371 and 71.376; IC50 [9]: > 1000 nM
